Measurements: patent publication US20140081017A1, “Histone Deacetylase Inhibitors for Enhancing Activity of Antifungal Agents” (METHYLGENE INC., priority 2012, published 2014)
Converted amounts (≈) assume the structure as drawn. Like-named read-outs stand apart in the source and are kept apart here.

Key:
C. glabrata = assay: Checkerboard FIC assay in combination with fluconazole (MIC alone and in combination, FICI); assay type: cell-based, Candida glabrata; settings: for FICI of combination resulting in fluconazole MIC of: 2 ug/mL / FICI of combination resulting in fluconazole MIC of: 4 ug/mL / FICI of combination resulting in fluconazole MIC of: 8 ug/mL: FICI calculated using a fluconazole MIC of 16 μg/mL; for FICI of combination resulting in fluconazole MIC of: 2 ug/mL (value in parenthesis) / FICI of combination resulting in fluconazole MIC of: 4 ug/mL (value in parenthesis) / FICI of combination resulting in fluconazole MIC of: 8 ug/mL (value in parenthesis): FICI using a fluconazole MIC of 128 μg/mL; for MIC: Nakaseomyces glabratus; for Concentration of Methylgene compound to synergize fluconazole MIC to 2 ug/mL / Concentration of Methylgene compound to synergize fluconazole MIC to 4 ug/mL / Concentration of Methylgene compound to synergize fluconazole MIC to 8 ug/mL: in combination with fluconazole; for Concentration of Methylgene compound to synergize fluconazole MIC to 2 ug/mL: fluconazole MIC lowered to 2 ug/mL; for Concentration of Methylgene compound to synergize fluconazole MIC to 4 ug/mL: fluconazole MIC lowered to 4 ug/mL; for Concentration of Methylgene compound to synergize fluconazole MIC to 8 ug/mL: fluconazole MIC lowered to 8 ug/mL; for Multiple of compound MIC to synergize fluconazole MIC to 2 ug/mL / Multiple of compound MIC to synergize fluconazole MIC to 4 ug/mL / Multiple of compound MIC to synergize fluconazole MIC to 8 ug/mL: concentration in combination as multiple of the compound's MIC alone; for Multiple of compound MIC to synergize fluconazole MIC to 2 ug/mL: fluconazole MIC 2 ug/mL; for Multiple of compound MIC to synergize fluconazole MIC to 4 ug/mL: fluconazole MIC 4 ug/mL; for Multiple of compound MIC to synergize fluconazole MIC to 8 ug/mL: fluconazole MIC 8 ug/mL
How it was run: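 A fluconazole synergy checkerboard was run against C. glabrata in MOPS-buffered RPMI (pH 7.0) for about 48 h at 35 °C. Each agent was diluted 2-fold, with one row and one column holding each agent alone for MIC determination. FICI was calculated from these MICs, using a 0.5 McFarland inoculum diluted 1:100 per CLSI.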

Candida parapsilosis = assay: Minimal Inhibitory Concentration (MIC) assay, broth microdilution per CLSI; assay type: cell-based; settings: Lodderomyces parapsilosis, read-out: Minimum Inhibitory Concentrations against Yeast Isolates, Candida parapsilosis;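 note: two read times 24 hr and 48 hr of incubation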
How it was run: (§1)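 Yeasts incubated ~24-48 hr at 35°C in MOPS-buffered RPMI (0.165 M, pH 7.0) containing DMSO-dissolved compound, following CLSI microdilution. Inoculum: 0.5 McFarland, diluted 1:100. MIC read visually as lowest concentration inhibiting growth (prominent-decrease endpoint for fluconazole).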

Candida glabrata = assay: as above; assay type: cell-based; settings: Nakaseomyces glabratus, read-out: Minimum Inhibitory Concentrations against Yeast Isolates, Candida glabrata;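 note: two read times 24 hr and 48 hr of incubation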
How it was run: as §1

Candida albicans = assay: as above; assay type: cell-based; settings: Candida albicans, read-out: Minimum Inhibitory Concentrations against Yeast Isolates, Candida albicans;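 note: two read times 24 hr and 48 hr of incubation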
How it was run: as §1

[1] = MIC of the example compound alone against C. glabrata in the checkerboard assay, approximately 48 hr, read-out: Methylgene MIC
[2] = test compound alone, C. glabrata, approx. 48 hr at 35° C., read-out: Compound MIC
[3] = 24 hr reading (first value of cell 24 hr/48 hr)
[4] = 48 hr reading (second value of cell 24 hr/48 hr)

SMILES	FICI of combination resulting in fluconazole MIC of: 2 ug/mL (C. glabrata; C. glabrata)	FICI of combination resulting in fluconazole MIC of: 4 ug/mL (C. glabrata; C. glabrata)	FICI of combination resulting in fluconazole MIC of: 8 ug/mL (C. glabrata; C. glabrata)	FICI of combination resulting in fluconazole MIC of: 2 ug/mL (value in parenthesis) (C. glabrata; C. glabrata)	FICI of combination resulting in fluconazole MIC of: 4 ug/mL (value in parenthesis) (C. glabrata; C. glabrata)	FICI of combination resulting in fluconazole MIC of: 8 ug/mL (value in parenthesis) (C. glabrata; C. glabrata)	MIC (C. glabrata; [1]) [mg/L]	MIC (C. glabrata; [2]) [mg/L]	Concentration of Methylgene compound to synergize fluconazole MIC to 2 ug/mL (C. glabrata; C. glabrata) [mg/L]	Concentration of Methylgene compound to synergize fluconazole MIC to 4 ug/mL (C. glabrata; C. glabrata) [mg/L]	Concentration of Methylgene compound to synergize fluconazole MIC to 8 ug/mL (C. glabrata; C. glabrata) [mg/L]	MIC (Candida parapsilosis; [3]) [mg/L]	MIC (Candida parapsilosis; [4]) [mg/L]	MIC (Candida glabrata; [3]) [mg/L]	MIC (Candida glabrata; [4]) [mg/L]	MIC (Candida albicans; [3]) [mg/L]	MIC (Candida albicans; [4]) [mg/L]	Multiple of compound MIC to synergize fluconazole MIC to 2 ug/mL (C. glabrata)	Multiple of compound MIC to synergize fluconazole MIC to 4 ug/mL (C. glabrata)	Multiple of compound MIC to synergize fluconazole MIC to 8 ug/mL (C. glabrata)
CN1CCC(C(=O)Nc2cccc(CCCCc3ccc(CC(=O)NO)cc3)c2)CC1 [Example 43, N-(3-(4-(4-(2-(hydroxyamino)-2-oxoethyl)phenyl)butyl)phenyl)-1-methylpiperidine-4-carboxamide]	0.313	0.250	0.313	0.266	0.156	0.125	> 16	> 16	8	4	2	> 64	> 64	16 (≈ 37.8 µM)	64 (≈ 151 µM)	> 64	> 64			
CN(C)CCSCC(=O)Nc1cccc(CCCCc2ccc(CC(=O)NO)cc2)c1 [Example 44, 2-(2-(dimethylamino)ethylthio)-N-(3-(4-(4-(2-(hydroxyamino)-2-oxoethyl)phenyl)butyl)phenyl)acetamide]	0.188	0.250	0.313	0.141	0.156	0.125	> 16	> 16	4	4	2	64 (≈ 144 µM)	> 64	16 (≈ 36.1 µM)	64 (≈ 144 µM)	> 64	> 64			
CC(=O)Nc1ccccc1CCCCc1ccc(CC(=O)NO)cc1 [Example 45, 2-(4-(4-(2-acetamidophenyl)butyl)phenyl)-N-hydroxyacetamide]	> 1.063	> 0.625	> 0.750	> 1.016	> 0.531	> 0.563	> 16	> 16	>16	16	16	> 64	> 64	32 (≈ 94 µM)	> 64	> 64	> 64			
O=C(Cc1ccc(CCCCc2ccccc2NC(=O)CO)cc1)NO [Example 46, N-hydroxy-2-(4-(4-(2-(2-hydroxyacetamido)phe-nyl)butyl)phenyl)acetamide]	0.563	0.625	0.500	0.516	0.531	0.313	> 16	> 16	16	16	8	> 64	> 64	64 (≈ 180 µM)	> 64	> 64	> 64			
O=C(Cc1ccc(CCCCc2ccc(NC(=O)NCCN3CCOCC3)cc2)cc1)NO [Example 47, N-hydroxy-2-(4-(4-(4-(3-(2-morpholinoethyl)ureido)phenyl)butyl)phenyl)acetamide]	0.563	0.375	0.500	0.516	0.281	0.313	16	16	8	4	4	> 32	> 32	4 (≈ 8.8 µM)	16 (≈ 35.2 µM)	> 32	> 32	(½x)	(¼x)	(¼x)
COC(=O)Nc1ccc(CCCCc2ccc(CC(=O)NO)cc2)cc1 [Example 48, methyl 4-(4-(4-(2-(hydroxyamino)-2-oxoethyl)phenyl)butyl) phenylcarbamate]	0.188	0.188	0.313	0.141	0.094	0.125	> 4	> 4	1	0.5	0.5	> 4	> 4	> 4	> 4	> 4	> 4			
CN1CCN(CCNC(=O)Nc2cccc(CCCCc3ccc(CC(=O)NO)cc3)c2)CC1 [Example 49, N-hydroxy-2-(4-(4-(3-(3-(2-(4-methylpiperazin-1-yl)ethyl)ureido)phenyl)butyl)phenyl)acetamide]	0.188	0.250	0.313	0.141	0.156	0.125	> 16	> 16	4	4	2	> 64	> 64	16 (≈ 34.2 µM)	> 64	> 64	> 64			
O=C(Cc1ccc(CCCCc2cccc(NC(=O)NCCN3CCOCC3)c2)cc1)NO [Example 50, N-hydroxy-2-(4-(4-(3-(3-(2-morpholinoethyl)urei-do)phenyl)butyl)phenyl)acetamide]	0.313	0.250	0.375	0.266	0.156	0.188	16	16	4	2	2	> 64	> 64	8 (≈ 17.6 µM)	16 (≈ 35.2 µM)	> 64	> 64	(¼x)	(⅛x)	(⅛x)
